For five compounds, Activity and EC50 results are on record in ChEMBL document CHEMBL3390842 (Medchemcomm, 2012).

Experiment [1] addresses T1, G-protein coupled receptor 35 (Homo sapiens, UniProt Q9HC97). The experiment in a line: Agonist activity at GPR35 in human HT-29 cells assessed as induction of whole cell dynamic mass redistribution at 32 uM after 50 mins by resonant waveguide grating biosensor analysis in presence of GPR35 antagonist ML-145. It is filed as cell-based.
For experiment [2], the target named is T1, G-protein coupled receptor 35. In kind it is cell-based, HT-29.
For experiment [3] the target is unchanged. It is filed as cell-based, U2OS.
Experiment [4] has the same target. The experiment in a line: Agonist activity at GPR35 in human HT-29 cells assessed as induction of whole cell dynamic mass redistribution at 128 uM after 50 mins by resonant waveguide grating biosensor analysis in presence of GPR35 antagonist ML-145. In kind it is cell-based.

Each structure is given as a SMILES string. The source made the active and inactive calls. No cut-off for these calls is given here.

T1 sequence (Q9HC97 whole entry): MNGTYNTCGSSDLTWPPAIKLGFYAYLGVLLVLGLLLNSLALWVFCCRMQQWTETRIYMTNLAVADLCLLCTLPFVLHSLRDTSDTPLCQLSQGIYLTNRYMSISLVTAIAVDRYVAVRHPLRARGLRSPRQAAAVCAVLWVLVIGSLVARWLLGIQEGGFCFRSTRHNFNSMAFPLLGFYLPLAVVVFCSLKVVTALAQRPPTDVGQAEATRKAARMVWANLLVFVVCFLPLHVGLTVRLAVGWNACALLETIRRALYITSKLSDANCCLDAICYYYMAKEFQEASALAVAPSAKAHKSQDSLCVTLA

Turning to `O=[N+]([O-])c1cc(O)c(O)c([N+](=O)[O-])c1`, the outcome in experiment [1] was inactive.

As usually defined, the EC50 is the concentration that produces a half-maximal response. Lower therefore signals higher potency in that assay. As for `O=C(c1cc(O)c(O)c([N+](=O)[O-])c1)c1ccccc1F`, the result in experiment [1] was Active. Further, the EC50 turned out to be 8.66 µM in experiment [2] and 54.4 µM in experiment [3].

For the compound `CCN(CC)C(=O)/C(C#N)=C/c1cc(O)c(O)c([N+](=O)[O-])c1` [ENTACAPONE], the EC50 in experiment [2] amounted to 5.66 µM; in experiment [3], 65.6 µM.

With `CC(=O)C(=Cc1cc(O)c(O)c([N+](=O)[O-])c1)C(C)=O` [NITECAPONE], the EC50 in experiment [2] came out at 0.82 µM; in experiment [3] it was 17.1 µM.

As for `O=[N+]([O-])c1ccc(O)c([N+](=O)[O-])c1`, the outcome in experiment [4] was Active.
